Experimental findings from patent US7375124B2, “Use of α-phenylthiocarboxylic and α-phenyloxycarboxylic acids with serum-glucose-lowering and serum-lipid-lowering activity” (Sigma-Tau Industrie Farmaceutiche Riunite S.p.A., priority 2002, dated 2008) are described below.

Each structure is given as a SMILES string.

For one test, the target named is T1, PPARγ (Mus musculus, UniProt P37238).
T1 construct: expressed in transfected cells; host or cells: NIH-3T3 (mouse embryonal fibroblasts)
T1 sequence (P37238 1-475 isoform P37238-2): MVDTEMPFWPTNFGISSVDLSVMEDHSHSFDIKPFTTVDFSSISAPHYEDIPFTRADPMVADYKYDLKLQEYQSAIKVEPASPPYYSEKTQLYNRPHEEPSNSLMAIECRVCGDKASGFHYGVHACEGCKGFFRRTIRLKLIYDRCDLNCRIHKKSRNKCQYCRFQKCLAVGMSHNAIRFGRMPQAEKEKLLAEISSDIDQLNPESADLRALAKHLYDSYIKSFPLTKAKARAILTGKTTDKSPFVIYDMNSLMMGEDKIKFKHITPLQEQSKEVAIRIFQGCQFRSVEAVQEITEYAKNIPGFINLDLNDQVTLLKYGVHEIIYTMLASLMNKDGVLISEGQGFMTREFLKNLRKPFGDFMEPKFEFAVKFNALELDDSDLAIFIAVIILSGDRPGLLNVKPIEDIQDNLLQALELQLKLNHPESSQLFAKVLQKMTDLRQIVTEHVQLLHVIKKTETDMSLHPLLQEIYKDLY
Description: Transactivation assay mediated by PPARγ in NIH-3T3 cells (CAT reporter). Format: cell-based. From the text:
A transactivation assay specific for PPARγ thus requires the simultaneous presence of the following in the preselected cell line: • a) a sufficient amount of PPARγ; • b) a sufficient amount of the 9 cis-retinoic acid receptor (RXR); • c) a chimeric plasmid containing the reporter gene controlled by a PPRE, located upstream of a viral heterologous promoter. In our case the reporter gene is chloramphenicol-acetyl transferase (CAT).
In the transactivation assay used, the preselected cells are transfected with the expression vector pSG5 Stop-mPPARg1 which allows the synthesis of the PPARγ receptor by the transfected cell. Simultaneously, a plasmid reporter (pBLCAT2-PPRE) is transfected which contains a peroxisome proliferator response element (PPRE) isolated by the gene promoter for acyl-CoA oxidase, upstream of the heterologous promoter of viral thymidine kinase (TK) fused with the reporter gene CAT. Since the endogenous cell levels of the RXR receptor are sufficiently high, it is not necessary to transfect an expression vector specific for RXR as well. […] Therefore, any increase in CAT levels will be the result of increased gene transcription dependent upon the dimerisation of PPARγ with RXR and upon the heterodimer bond formed with the peroxisome proliferator response element. Together with the expression vector and the reporter vector the cells are also transfected with the plasmid pCH110 which provides the internal control for the efficiency of transfection and the normalisation of the results
A cell line of mouse embryonal fibroblasts (NIH-3T3) was used [Hogan J. C. et al., Biochem Biophys Res Commun. 287 (2), 484-92 (2001)]. The cells were transfected with the reporter plasmid, the expression plasmid coding for the PPARγ receptor and the control vector pCH110. The cells were exposed to increasing concentrations of the study compounds and CAT activity was evaluated. Untreated cells were used as controls.
Mouse embryonal fibroblasts (NIH-3T3) were cultured according to the usual cell culture techniques, at 37° C. in a 5% v/v carbon dioxide atmosphere using as the growth medium DMEM (Dulbecco's modified Eagle's medium) modified with 3.7 g/l of sodium bicarbonate, 4 mM L-glutamine, 4.5 g/l of glucose, 1 mM sodium pyruvate and 10% v/v of calf serum, in the presence of streptomycin 100 μg/ml and penicillin 100 U/ml final.
The cells were co-transfected using the transfection reagent FuGENE6 (Roche), already described in the previous example. Twenty-four hours prior to transfection the cells were plated at a density of 8.0×10^4 cells/well in 12-well plates and maintained at 37° C. in a 5% v/v CO2 atmosphere. The culture medium, devoid of serum, was replaced 2 hours before transfection, and then the cells were treated with the transfection reagent FuGENE6, as described in the previous example. After 5 hours, the transfection medium was replaced by 1 ml of culture medium complete with serum and antibiotics in the presence or absence of the molecules to be tested at 3 different concentrations (2, 20 and 100 μM). Rosiglitazone, a known ligand of PPARγ, was used as the positive reference compound.
The cell protein extracts were prepared and the CAT activity assay was conducted exactly as described in the previous example.
As an internal control for the normalisation of the CAT activity in relation to the transfection efficiency, β-galactosidase activity coded for by the corresponding gene in the co-transfected plasmid pCH110 was used.
β-galatosidase activity was measured exactly as described in the previous example.
For the normalisation of the CAT assay results in relation to […] activity the formula described in the previous example was used.

The target of a further test is T2, mPPARαLBD/Gal4DBD (Mus musculus, UniProt P23204).
T2 construct: expressed in transfected cells; host or cells: COS-7 (monkey kidney fibroblasts)
T2 sequence (P23204 239-466 limits assumed): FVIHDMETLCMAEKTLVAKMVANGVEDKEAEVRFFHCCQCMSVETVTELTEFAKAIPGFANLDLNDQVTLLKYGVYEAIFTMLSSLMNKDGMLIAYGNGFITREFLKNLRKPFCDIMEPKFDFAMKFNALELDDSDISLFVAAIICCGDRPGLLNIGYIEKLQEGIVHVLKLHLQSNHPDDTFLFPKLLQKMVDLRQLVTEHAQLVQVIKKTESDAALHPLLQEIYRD
Description: Transactivation assay mediated by mPPARαLBD/Gal4DBD in COS-7 cells (CAT reporter). Format: cell-based. The source says:
In this model a transactivation assay is used in which the expression vector mPPARαLBD/Gal4 DBD allows the synthesis by the transfected cell of a chimeric protein, in which the ligand binding domain (LBD) of PPARα is fused with the DNA binding domain (DBD) of the transcription factor GAL4 of yeast [Luckow B. et al., Nucleic Acids Res. 15, 5490 (1987)]. Simultaneously, a plasmid (pG5CAT) is transfected which contains 5 copies of the high-affinity binding site for GAL4 (also called UAS, upstream activating sequence), upstream of the viral promoter E1b fused with the CAT reporter gene [Moya-Camarena S. Y. et al., J. Lipid Res. 40 (8), 1426-33 (1999)]. This model eliminates interference by possible endogenous receptors.
This is due to the fact that the activation of E1b and the production of CAT will occur exclusively thanks to the interaction of GAL4 DBD with its own response element (UAS). Since the transcription factor GAL4 is not expressed in […] cells, transactivation of the reporter gene can take place only when, as a result of the interaction of a ligand with the LBD of PPARα, the chimeric protein PPARα/GAL4 recognises the UAS sequence on the plasmid pG5CAT. Together with the expression vector and the reporter vector the cells were also transfected with the plasmid pCH110 which provides the internal control for the efficiency of transfection and the normalisation of the results.
A monkey kidney fibroblast cell line (COS-7) was used [Elbrecht A. et al., J. Biol. Chem. 274 (12), 7913-22 (1999)]. The cells were co-transfected with the reporter vector, the expression plasmid coding for the fusion protein Gal4 DBD/PPARαLBD and the control vector pCH110. The cells were exposed to increasing concentrations of the study compounds and CAT activity was evaluated. Untreated cells were used as controls.
Monkey kidney fibroblasts (COS-7) were cultured according to the usual cell culture techniques, at 37° C. in a 5% v/v carbon dioxide atmosphere using as the growth medium DMEM (Dulbecco's modified Eagle's medium) modified with 3.7 g/l of sodium bicarbonate, 4 mM L-glutamine, 4.5 g/l of glucose, 1 mM sodium pyruvate and 10% v/v of foetal bovine serum, in the presence of streptomycin 100 μg/ml and penicillin 100 U/ml final.
The cells were co-transfected using the transfection reagent FuGENE6 (Roche), consisting of a defined mixture of lipids capable of complexing the DNA and of transporting it into the cells. Twenty-four hours prior to transfection the cells were plated at a density of 1.2×10^5 cells/well in 12-well plates and maintained at 37° C. in a 5% v/v CO2 atmosphere. […] Briefly, the transfection mixture containing 0.8 μg of the expression vector, 1.6 μg of the reporter vector, 0.8 μg of the control vector and 9 μl of the FuGENE6 reagent per well was added directly to the cells in the presence of culture medium devoid of serum. After 5 hours, the transfection medium was replaced by 1 ml of culture medium complete with serum and antibiotics in the presence or absence of the molecules to be tested at 3 different concentrations (2, 20 and 100 μM). Wy-14,643 (2 μM), a known ligand of PPARα, was used as the positive reference compound.
After 48 hours' incubation at 37° C. in a 5% v/v CO2 atmosphere, the cells were washed twice with 1 ml of phosphate buffer (PBS) and removed mechanically from the wells in TEN buffer (Tris[hydroxymethyl]aminomethane 10 mM pH 8, ethylenediamine-tetraacetic acid 1 mM pH 8, sodium chloride 0.1 M). After centrifuging for 3 minutes at 1000 rpm, the cells were resuspended in 65 μl of lysis buffer (Tris-HCl 0.25 M, pH 8) and then lysed thanks to three rapid freeze-thaw cycles. The insoluble cellular materials (debris) were removed by centrifuging at 15,000 rpm for 15 minutes at 4° C., and the supernatant was recovered and used for the CAT and β-galactosidase activity assays. […]

As for `CC(C)(Sc1cccc(OCCc2ccc(Cl)cc2Cl)c1)C(=O)O` [Example 13, 2-[3-(2-(2,4-dichlorophenyl)ethoxy)phenylthio]-2-methylpropanoic acid], the “Activation of the gene-reporter CAT as a percentage of the reference compound (rosiglitazone 2 μM = 100%)” value on PPARγ (2 μM) is given as 61.6%; on PPARγ (20 μM), 91.6%; at PPARγ (100 μM), 101%. The “Activation of reporter gene CAT as a percentage of the reference compound (WY-14,643 2 μM = 100%)” value was found to be 132.3% on mPPARαLBD/Gal4DBD (2 μM), 199.3% at mPPARαLBD/Gal4DBD (20 μM) and 203.8% on mPPARαLBD/Gal4DBD (100 μM).
On to `CC(C)(Sc1cccc(OCCc2ccc3ccccc3c2)c1)C(=O)O` [Example 18, 2-[3-[2-(2-naphthyl)ethoxy]phenylthio]-2-methylpropanoic acid], for which the “Activation of the gene-reporter CAT as a percentage of the reference compound (rosiglitazone 2 μM = 100%)” value at PPARγ (2 μM) turned out to be 25%; on PPARγ (20 μM) it was 67%; at PPARγ (100 μM), 82.2%. Further, the “Activation of reporter gene CAT as a percentage of the reference compound (WY-14,643 2 μM = 100%)” value is reported as 85% on mPPARαLBD/Gal4DBD (2 μM), 96.4% at mPPARαLBD/Gal4DBD (20 μM) and 151.9% at mPPARαLBD/Gal4DBD (100 μM).
